Results published in US8927579B2, “Male contraceptive” (priority 2007, dated 2015).
Structures can show the parent of a compound that is named as a salt.

Assays:
[1] = system: sperm emission in patients; settings: cited from earlier work
[2] = system: circular muscle of human vas deferens; experiment: Inhibition at fixed concentration of contractions evoked by high K+ in the presence of FPL 64176, circular muscle; settings: [K+]o 120 mM in the presence of FPL 64176; drug 1.0 μM
Excerpt: (§1) Human vas deferens specimens were obtained after elective vasectomies of healthy fertile men. College ethical approval and the consent of patients were obtained. The specimens were placed in ice-cold Krebs' medium, dissected-free of connective tissue/blood vessels and cut longitudinally into strips (longitudinal muscle preparations; 5-10 mm long & 1 mm wide) or transversely into rings (circular muscle preparations; 3 mm in length). The longitudinal and circular muscle preparations were then set up for tension recording (resting tension 5-7 mN) in a Perspex chamber superfused at 2 ml per min with Krebs' medium (36° C.) composed of (mM): NaCl, 118.8; NaHCO3, 25; KCl, 4.7; CaCl2.2H2O, 2.5; KH2PO4, 1.2; MgSO4.7H2O, 1.2; glucose, 11.1; ascorbic acid 0.1 and continuously gassed with 95% O2 and 5% CO2. Contractile responses were recorded via a Harvard-type force-displacement transducer. The analog signals were digitised using CIO-Das 16/Jr data acquisition software (Amplicon Liveline, Brighton, UK) and re-plotted on a microcomputer.
(§2) Tissues were equilibrated for 180 min in Krebs' medium containing inhibitors of extraneuronal and neuronal reuptake of noradrenaline, oestradiol (1 μM) and desipramine (0.1 μM) respectively, inhibitors of catechol-O-methyltransferase and monoamine oxidase, tropolone (10 μM) and iproniazid (10 μM) respectively and the β-adrenoceptor blocker, propranolol (1 μM). At the end of the equilibration period, the tissues were stimulated with noradrenaline (100 μM). […] After a contact time of 30-40 min in this medium, different experimental protocols (described below) were adopted in order to • (a) Elucidate the contractile actions of L-type Ca^2+ agonists such as FPL 64176 or Bay K 8644. In these experiments, tissues were exposed to FPL 64176 (0.1-10 μM added cumulatively) or in separate experiments Bay K 8644 (0.1-10 μM added cumulatively). • (b) Investigate the effects of various diphenylalkylamines and conventional L-type Ca^2+ antagonists (methoxyverapamil or nifedipine) on contractions evoked by high concentrations of extracellular potassium (high [K^+]o) in the presence of L-type Ca^2+ agonists, FPL 64176 (1 μM) or Bay K 8644 (1 μM). In this protocol, tissues were stimulated with high [K^+]O (10, 30 and 120 mM at 10-15 min intervals) in normal Krebs' medium, then exposed to L-type Ca^2+ agonists for 20-30 min and subsequently stimulated with high [K^+]O (10, 30 and 120 mM) in the presence of the drugs. These provided the initial responses. Following this and in the continuous presence of the L-type Ca^2+ agonists, the tissues were exposed additionally to L-type Ca^2+ antagonists (conventional or diphenylalkylamines) or drug-free vehicle medium. After contact times of 25-50 min the tissues were stimulated, first with high [K^+]O (either 30 mM or 120 mM) in order to take account of the well-documented use-dependent action of the diphenylalkylamine Ca^2+ antagonists. Following recovery from the test contraction and after a further 30-40 min, the tissues were then stimulated with high [K^+]o (10, 30 and 120 mM). This protocol is illustrated in FIGS. 3 and 4. The resulting contractions were measured (see below) and expressed as a percentage of corresponding initial responses to high [K^+]o evoked in the presence of L-type Ca^2+ agonists (i.e. before exposure to L-type Ca^2+ antagonists). […]

[3] = system: longitudinal muscle of human vas deferens; experiment: Inhibition at fixed concentration of contractions evoked by high K+ in the presence of FPL 64176, longitudinal muscle; settings: [K+]o 120 mM in the presence of FPL 64176; drug 1.0 μM
Excerpt: as §1
as §2, with “Following this and in the continuous presence of the L-type Ca^2+ agonists, the tissues were exposed additionally to L-type Ca^2+ antagonists (conventional or diphenylalkylamines) or drug-free vehicle medium. After contact times of 25-50 min the tissues were stimulated, first with high [K^+]O (either 30 mM or 120 mM) in order to take account of the well-documented use-dependent action of the diphenylalkylamine Ca^2+ antagonists. Following recovery from the test contraction and after a further 30-40 min, the tissues were then stimulated with high [K^+]o (10, 30 and 120 mM). This protocol is illustrated in FIGS. 3 and 4.” left out

[4] = system: longitudinal muscle of human vas deferens; experiment: IC50 against contractions evoked by high K+ (120 mM) in the presence of FPL 64176, longitudinal muscle strips; settings: contractions evoked by K+ (120 mM) in the presence of FPL 64176 (1 μM), means ± S.E.M.
Excerpt: as §1
(§3) Tissues were equilibrated for 180 min in Krebs' medium containing inhibitors of extraneuronal and neuronal reuptake of noradrenaline, oestradiol (1 μM) and desipramine (0.1 μM) respectively, inhibitors of catechol-O-methyltransferase and monoamine oxidase, tropolone (10 μM) and iproniazid (10 μM) respectively and the β-adrenoceptor blocker, propranolol (1 μM). At the end of the equilibration period, the tissues were stimulated with noradrenaline (100 μM). […] After a contact time of 30-40 min in this medium, different experimental protocols (described below) were adopted in order to • (a) Elucidate the contractile actions of L-type Ca^2+ agonists such as FPL 64176 or Bay K 8644. In these experiments, tissues were exposed to FPL 64176 (0.1-10 μM added cumulatively) or in separate experiments Bay K 8644 (0.1-10 μM added cumulatively). • (b) Investigate the effects of various diphenylalkylamines and conventional L-type Ca^2+ antagonists (methoxyverapamil or nifedipine) on contractions evoked by high concentrations of extracellular potassium (high [K^+]o) in the presence of L-type Ca^2+ agonists, FPL 64176 (1 μM) or Bay K 8644 (1 μM). In this protocol, tissues were stimulated with high [K^+]O (10, 30 and 120 mM at 10-15 min intervals) in normal Krebs' medium, then exposed to L-type Ca^2+ agonists for 20-30 min and subsequently stimulated with high [K^+]O (10, 30 and 120 mM) in the presence of the drugs. These provided the initial responses. Following this and in the continuous presence of the L-type Ca^2+ agonists, the tissues were exposed additionally to L-type Ca^2+ antagonists (conventional or diphenylalkylamines) or drug-free vehicle medium. After contact times of 25-50 min the tissues were stimulated, first with high [K^+]O (either 30 mM or 120 mM) in order to take account of the well-documented use-dependent action of the diphenylalkylamine Ca^2+ antagonists. Following recovery from the test contraction and after a further 30-40 min, the tissues were then stimulated with high [K^+]o (10, 30 and 120 mM). This protocol is illustrated in FIGS. 3 and 4. The resulting contractions were measured (see below) and expressed as a percentage of corresponding initial responses to high [K^+]o evoked in the presence of L-type Ca^2+ agonists (i.e. before exposure to L-type Ca^2+ antagonists). […] Subsequent analysis (see below) was between contractions of drug-treated tissues and time-matched controls • (c) Determine the inhibitory potencies (IC50 values) of various diphenylalkylamines and phenothiazines and conventional L-type Ca^2+ antagonists (nifedipine and methoxyverapamil) against contractions evoked in longitudinal and circular muscle of human vas deferens by high [K^+]o (120 mM) in the presence of FPL 64176. In these experiments, tissues were stimulated with high [K^+]o (120 mM); sequentially in normal Krebs' medium and after 25-30 min exposure to the L-type Ca^2+ agonist, FPL 64176, (1 μM, Initial response). […]

[5] = system: circular muscle of human vas deferens; experiment: IC50 against contractions evoked by high K+ (120 mM) in the presence of FPL 64176, circular muscle rings; settings: contractions evoked by K+ (120 mM) in the presence of FPL 64176 (1 μM), means ± S.E.M.
Excerpt: as §1, §3

[6] = system: longitudinal muscle of human vas deferens; experiment: New molecules against contractions to high K+ (120 mM), longitudinal muscle; settings: for IC50: Homo sapiens, contractions evoked by K+ (120 mM), preliminary data, mean, n=2-3, read-out: Functional inhibitory potencies (IC50 values), Longitudinal muscle; for relative effectiveness against longitudinal and circular muscle contractions: contractions evoked by high [K+]o; for Selectivity [(C/L)-1]: longitudinal muscle selectivity from IC50 values in circular and longitudinal muscle, K+ (120 mM)
Excerpt: as §1, with “preparations; 5-8” for “preparations; 5-10”, “preparations; ˜3” for “preparations; 3”, “a Harvard type” for “a Harvard-type”
(§4) Tissues were equilibrated for 180 min in Krebs' medium containing inhibitors of extraneuronal and neuronal reuptake of noradrenaline, oestradiol (1 μM) and desipramine (0.1 μM) respectively, inhibitors of catechol-O-methyltransferase and monoamine oxidase, tropolone (10 μM) and iproniazid (10 μM) respectively and the β-adrenoceptor blocker, propranolol (1 μM). At the end of the equilibration period, the tissues were stimulated with noradrenaline (100 μM). […] After 40-45 min in this medium the tissues were stimulated with high [K^+]O (120 mM, Initial response). This was followed by exposure to cumulative concentrations of the new molecules {NIBA(1)XC1, NIBA(14)XN10, NIBA(6)XN3, NIBA(2)XC2, NIBA(53)XN16} or to Krebs' medium containing drug vehicles (time-matched controls). After contact times of 40-60 min at each drug concentration, the tissues were stimulated with high [K^+]o (120 mM). The resulting contractions were measured using computer software developed in-house to measure the total response (i.e. rhythmic activity plus tonic contraction). Contractions obtained in the presence of the new drug molecules were expressed as a percentage of the initial contraction evoked by high [K^+]o (120 mM) before exposure to the drugs.

[7] = system: circular muscle of human vas deferens; experiment: New molecules against contractions to high K+ (120 mM), circular muscle; settings: contractions evoked by K+ (120 mM), preliminary data, mean, n=2-3, read-out: Functional inhibitory potencies (IC50 values), Circular muscle
Excerpt: as §1, with “preparations; 5-8” for “preparations; 5-10”, “preparations; ˜3” for “preparations; 3”, “a Harvard type” for “a Harvard-type”
as §4

In the case of `CSc1ccc2c(c1)N(CCC1CCCCN1C)c1ccccc1S2` (centres unmarked) [Thioridazine, thioridazine hydrochloride], the “time to inhibition of sperm emission after drug administration” value ([1]; even at sub therapeutic doses) is listed as ≤ 24 h.
In the case of (−)-methoxyverapamil hydrochloride, the “inhibition of circular muscle contractions” value [2] is reported as 93-98%, the “inhibition of longitudinal muscle contractions” value [3] is reported as 93-98% and the IC50 [4] is reported as 0.016 ± 0.0009 µM. The IC50 [5] was 0.0181 ± 0.0038 µM.
For `CN1CCN(CCCN2c3ccccc3Sc3ccc(C(F)(F)F)cc32)CC1` [Trifluoperazine, trifluoperazine dihydrochloride], the “effect on sperm emission (contraceptive side effect)” value ([1]; clinical studies) is listed as “lack the contraceptive side-effect”, the IC50 ([4]; Homo sapiens) is listed as 20.7 ± 5.4 µM and the IC50 ([5]; Homo sapiens) is listed as 10.2 ± 3 µM.
With `CC1CCCCN1CCC(c1ccccc1)c1ccccc1` (centres unmarked) [NIBA(2)XC2] the IC50 [6] was 3 µM, the “relative effectiveness against longitudinal and circular muscle contractions” value [6] was “more effective against longitudinal than circular muscle contractions” and the “Selectivity [(C/L)-1]” value [6] was 2.69. For the same compound, the IC50 [7] was 11.1 µM.
Work on `COCC(=O)O[C@]1(CCN(C)CCCc2nc3ccccc3[nH]2)CCc2cc(F)ccc2[C@@H]1C(C)C` [Mibefradil] yielded an IC50 ([4]; Homo sapiens) of 1.1 ± 0.2 µM and an IC50 ([5]; Homo sapiens) of 2.4 ± 0.9 µM.
With `CN(C)CCCN1c2ccccc2Sc2ccc(Cl)cc21` [Chlorpromazine, chlorpromazine hydrochloride] the IC50 ([4]; Homo sapiens) was 12.4 ± 2.9 µM and the IC50 ([5]; Homo sapiens) was 18.3 ± 6 µM.
For `CN1CCCC1CCN(c1ccccc1)c1ccccc1` (centres unmarked) [NIBA(53)XN16], the IC50 [6] was 4.5 µM, the “Selectivity [(C/L)-1]” value [6] was 1.4 and the IC50 [7] was 11 µM.
For `CN1CCCCC1CNCCC(c1ccccc1)c1ccccc1` (centres unmarked) [NIBA(1)XC1], the IC50 [6] was 3.02 µM, the “relative effectiveness against longitudinal and circular muscle contractions” value [6] was “more effective against longitudinal than circular muscle contractions” and the “Selectivity [(C/L)-1]” value [6] was 7.01. It also gave an IC50 [7] of 24.2 µM.
